# Like-named read-outs stand apart in the source and are kept apart here. Where a SMILES comes first, the peptide text is derived from it. Bridges are numbered along the chain shown (N, C = ends). [ ]: non-standard residue; d: D form. The star is where a group is joined. Ileψ(thiazoline)Cys = CC[C@H](C)[C@H](N)C1=N[C@H](C(=O)*)CS1; dOrn = NCCC[C@@H](N)C(=O)O
# What was measured:
# E. coli MG1655 [1] = assay type: cell-based, Escherichia coli
# ten strains of E. coli = assay type: cell-based, Escherichia coli; further: key: +: indicates that the organism tested was capable of utilizing the carbon source listed; −: indicates that the organism tested was not capable of utilizing the carbon source listed; indicates weak positive reactions
# HepG2 cells = HepG2 cells cultured on CYTODEX 3 microcarriers, energy sources; assay type: cell-based, human; conditions: Homo sapiens, HepG2, 68 h, read-out: Responses of HepG2 Cells Cultured on Microcarriers After 68 hours in Culture and a 4 hour Color Development Period
# Description: In this Example, methods for testing adherent cells cultured in suspension, for their ability to use multiple carbon sources are described. HepG2 cells were cultured as described in Example 30.
# HepG2 cells were harvested by trypsinization for 3 minutes in 0.25% trypsin-1 mM EDTA and resuspended in an equal volume of culture medium. A viable cell count was obtained by trypan blue exclusion and the appropriate volume of the cell suspension to have 2.7×10^6 cells/0.1 gm CYTODEX 3 (Sigma C3275) microcarrier beads was determined. Microcarrier beads had been previously prepared by 1) rehydration in calcium-magnesium free (CMF) DPBS for 3 hours, 2) autoclaving for 15 minutes, and 3) washing twice in MEM without serum. The cell suspension was added to the beads in a 50 mL tube, and the volume adjusted to 5 mL. Cells were allowed to attach for 1 hour in an atmosphere of 5% CO2, 90-100% humidity, and 37° C., with resuspension every 15 minutes. The microcarriers were transferred to a 100×15 mm Petri dish in a total volume of 20 mL. Cultures were maintained as stationary cultures until used for assay.
# The thixotropic suspending agent, methylcellulose (1500 cps, Sigma M0555), was included in the medium to keep the microcarriers suspended so that they could be accurately pipetted. The methylcellulose was prepared by autoclaving in 20 mL tissue culture water for 30 minutes, then mixing by shaking for 1 hour. The initial concentration of methylcellulose was […]. The methylcellulose was then diluted 1:1 in 2× DME with or without glucose, then supplemented with 10% HI FBS; this yields a methylcellulose concentration of 1.36%. Beads were transferred to a 50 mL tube, allowed to settle and resuspended in DPBS. The washed beads were then resuspended in DME with 10% HI FBS and penicillin-streptomycin but without glucose, L-glutamine, sodium pyruvate, or phenol red. An equal volume of 1.36% methylcellulose was added and mixed by pipetting.
# For the assay, 70 μL of DME with 10% HI FBS and penicillin-streptomycin but without glucose, L-glutamine, sodium pyruvate, or phenol red were added to each well, followed by 30 μL of the appropriate dilution of each test energy source. Stocks of 133 mM of each test chemical were prepared in tissue culture grade water, sterile filtered, and dilutions were prepared in a master plate so that, upon dilution into a regular 96-well MICROPLATE a total well volume of 200 μL, the final concentrations would be 0.033 to 20 mM. Negative control wells received 30 μL of tissue culture grade water. One hundred μL of beads were pipetted into each well. For each plate containing energy sources and cells, a second, control plate containing only energy sources was prepared. Plates were incubated at 5% CO2, 90-100% humidity, and 37° C. for 68 hours prior to addition of the MTS/MPMS colorometric reagent (10 μL/well). The color formed in each well 4-8 hours after addition of the colorimetric reagent, was measured with a plate reader at 490 nm with a reference wavelength of 650 nm. OD values from the control plate were subtracted from the OD values obtained with cells prior to normalizing the data to % negative control (cells without added energy source).
# [2] = system: Salmonella typhimurium auxotrophs hisF645 and pyrCΔ73; assay type: cell-based
# E. coli MG1655 [3] = assay type: cell-based, Escherichia coli; remark: listed apart in the source
# E. coli (MG1655) = assay: Sensitivity in ES1, ES2, ES3 MICROPLATE panels in the presence of vancomycin or sulfamethoxazole (synergy/antagonism); assay type: cell-based, Escherichia coli
# E. coli MG1655 [4] = assay: PM kinetic profiles of antimicrobials, S-O-R scoring and dendrogram; assay type: cell-based, Escherichia coli
# [5] = 1× level of each antimicrobial, 7 PMs, 48 hours
# [6] = in the presence of 235 μg/ml sulfamethoxazole
# [7] = in the presence of 10 μg/ml vancomycin
molecule,measurement,setting,value
O=c1ccn([C@@H]2O[C@H](CO)[C@@H](O)[C@H]2O)c(=O)[nH]1 [Uridine],"suitability as nitrogen source (growth, purple color)",E. coli MG1655 [1],not suitable
same,carbon source utilization,ten strains of E. coli,+
same,activity at 30 µM,HepG2 cells; Conc. 0.03 mM,102%
same,activity at 100 µM,HepG2 cells; Conc. 0.10 mM,109%
same,activity at 330 µM,HepG2 cells; Conc. 0.33 mM,99%
same,activity at 1000 µM,HepG2 cells; Conc. 1.00 mM,109%
same,activity at 3300 µM,HepG2 cells; Conc. 3.3 mM,106%
same,activity at 10000 µM,HepG2 cells; Conc. 10 mM,94.8%
same,activity at 15000 µM,HepG2 cells; Conc. 15 mM,74.1%
same,activity at 20000 µM,HepG2 cells; Conc. 20 mM,31.9%
same,growth stimulation (well color),[2],turned purple
Nc1ncnc2c1ncn2[C@@H]1O[C@H](CO)[C@@H](OP(=O)(O)O)[C@H]1O [adenosine 3-monophosphate],growth stimulation (well color),[2],turned weakly purple
same,"suitability as phosphorus source (growth, purple color)",E. coli MG1655 [3],positive
Nc1ncnc2c1ncn2[C@@H]1O[C@H](COP(=O)(O)O)[C@@H](O)[C@H]1O [adenosine 5′-monophosphate],growth stimulation (well color),[2],turned weakly purple
same,"suitability as phosphorus source (growth, purple color)",E. coli MG1655 [3],not suitable
Nc1ncnc2c1ncn2[C@@H]1O[C@H](CO)[C@@H](O)[C@H]1OP(=O)(O)O [adenosine-2′-monophosphate],growth stimulation (well color),[2],turned weakly purple
same,"suitability as phosphorus source (growth, purple color)",E. coli MG1655 [3],positive
O=[N+]([O-])c1ncc[nH]1 [azomycin],change of sensitivity to the panel compound,E. coli (MG1655),increased sensitivity
CC[C@H](C)[C@H](N)C1=N[C@H](C(=O)N[C@@H](CC(C)C)C(=O)N[C@H](CCC(=O)O)C(=O)N[C@H](C(=O)N[C@H]2CCCCNC(=O)[C@H](CC(N)=O)NC(=O)[C@@H](CC(=O)O)NC(=O)[C@H](Cc3cnc[nH]3)NC(=O)[C@@H](Cc3ccccc3)NC(=O)[C@H]([C@@H](C)CC)NC(=O)[C@@H](CCCN)NC2=O)[C@@H](C)CC)CS1 [bacitracin] ({Ileψ(thiazoline)Cys}-L[dE]IK[dOrn]I[dF]H[dD]N; lactam 4-C),position in dendrogram of PM response profiles (FIG. 9),E. coli MG1655 [4]; [5],cluster
N[C@@H](C(=O)N[C@@H]1C(=O)N2C(C(=O)O)=C(Cl)CS[C@H]12)c1ccccc1 [cefaclor],change of sensitivity to the panel compound,E. coli (MG1655); [6],increased sensitivity
Cc1nnc(SCC2=C(C(=O)O)N3C(=O)[C@@H](NC(=O)Cn4cnnn4)[C@H]3SC2)s1 [cefazolin],change of sensitivity to the panel compound,E. coli (MG1655); [7],increased sensitivity
same,change of sensitivity to the panel compound,E. coli (MG1655); [6],increased sensitivity
CO[C@@]1(NC(=O)Cc2cccs2)C(=O)N2C(C(=O)O)=C(COC(N)=O)CS[C@@H]21 [cefoxitin],change of sensitivity to the panel compound,E. coli (MG1655); [7],increased sensitivity
NC(=O)c1cc[n+](CC2=C(C(=O)O)N3C(=O)[C@@H](NC(=O)[C@@H](c4ccccc4)S(=O)(=O)[O-])[C@H]3SC2)cc1 [cefsulodin],change of sensitivity to the panel compound,E. coli (MG1655); [6],increased sensitivity
O=C(Cc1cccs1)N[C@@H]1C(=O)N2C(C(=O)[O-])=C(C[n+]3ccccc3)CS[C@H]12 [cephaloridine],change of sensitivity to the panel compound,E. coli (MG1655); [6],increased sensitivity
C/C=C/C/C=C/CCC(=O)[C@H]1O[C@H]1C(N)=O [cerulenin],position in dendrogram of PM response profiles (FIG. 9),E. coli MG1655 [4]; [5],more closely resembled the multiple target antimicrobials
[Cl][Cr]([Cl])[Cl] [chromium chloride],change of sensitivity to the panel compound,E. coli (MG1655),increased sensitivity
[Cl][Co][Cl] [cobalt chloride],change of sensitivity to the panel compound,E. coli (MG1655),increased sensitivity
Nc1ccn([C@@H]2O[C@H](CO)[C@@H](O)[C@H]2OP(=O)(O)O)c(=O)n1 [cytidine 2′-monophosphate],growth stimulation (well color),[2],turned purple
same,"suitability as phosphorus source (growth, purple color)",E. coli MG1655 [3],not suitable
Nc1ccn([C@@H]2O[C@H](CO)[C@@H](OP(=O)(O)O)[C@H]2O)c(=O)n1 [cytidine 3′-monophosphate],growth stimulation (well color),[2],turned purple
same,"suitability as phosphorus source (growth, purple color)",E. coli MG1655 [3],positive
Nc1ccn([C@@H]2O[C@H](COP(=O)(O)O)[C@@H](O)[C@H]2O)c(=O)n1 [cytidine 5′-monophosphate],growth stimulation (well color),[2],turned purple
same,"suitability as phosphorus source (growth, purple color)",E. coli MG1655 [3],positive
CC(=O)O[C@H]1C[C@@]2(C)[C@@H](C[C@@H](O)[C@H]3[C@@]4(C)CC[C@@H](O)[C@@H](C)[C@@H]4CC[C@@]32C)/C1=C(\CCC=C(C)C)C(=O)O [fusidic acid],change of sensitivity to the panel compound,E. coli (MG1655); [7],increased sensitivity
Nc1nc2c(ncn2[C@@H]2O[C@H](CO)[C@@H](O)[C@H]2OP(=O)(O)O)c(=O)[nH]1 [guanosine 2′-monophosphate],growth stimulation (well color),[2],turned weakly purple
same,"suitability as phosphorus source (growth, purple color)",E. coli MG1655 [3],positive
Nc1nc2c(ncn2[C@@H]2O[C@H](COP(=O)(O)O)[C@@H](O)[C@H]2O)c(=O)[nH]1 [guanosine 5′-monophosphate],growth stimulation (well color),[2],turned weakly purple
same,"suitability as phosphorus source (growth, purple color)",E. coli MG1655 [3],positive
[Cl][Ni][Cl] [nickel chloride],change of sensitivity to the panel compound,E. coli (MG1655),increased sensitivity
CO[C@@H]1[C@@H](OC(N)=O)[C@@H](O)[C@H](Oc2ccc3c(O)c(NC(=O)c4ccc(O)c(CC=C(C)C)c4)c(=O)oc3c2C)OC1(C)C [novobiocin],change of sensitivity to the panel compound,E. coli (MG1655),increased resistance
same,change of sensitivity to the panel compound,E. coli (MG1655); [7],increased sensitivity
CCn1cc(C(=O)O)c(=O)c2cc3c(cc21)OCO3 [oxolinic acid],position in dendrogram of PM response profiles (FIG. 9),E. coli MG1655 [4]; [5],clustered
C[C@@H]1O[C@@H]1P(=O)(O)O [phosphomycin],position in dendrogram of PM response profiles (FIG. 9),E. coli MG1655 [4]; [5],cluster
[H]/N=C(/N)N[C@H]1[C@H](O)[C@@H](O)[C@H](O[C@@H]2O[C@@H](C)[C@](O)(C=O)[C@H]2O[C@@H]2O[C@@H](CO)[C@H](O)[C@@H](O)[C@@H]2NC)[C@@H](N/C(N)=N\[H])[C@@H]1O [streptomycin],position in dendrogram of PM response profiles (FIG. 9),E. coli MG1655 [4]; [5],cluster
Nc1ccc(S(=O)(=O)Nc2nccs2)cc1 [sulfathiazole],position in dendrogram of PM response profiles (FIG. 9),E. coli MG1655 [4]; [5],more closely resembled the multiple target antimicrobials
COc1cc(Cc2cnc(N)nc2N)cc(OC)c1OC [trimethoprim],change of sensitivity to the panel compound,E. coli (MG1655); [7],increased sensitivity
same,change of sensitivity to the panel compound,E. coli (MG1655); [6],increased sensitivity
O=c1ccn([C@@H]2O[C@H](CO)[C@@H](OP(=O)(O)O)[C@H]2O)c(=O)[nH]1 [uridine 3′-monophosphate],growth stimulation (well color),[2],turned purple
same,"suitability as phosphorus source (growth, purple color)",E. coli MG1655 [3],positive
O=c1ccn([C@@H]2O[C@H](COP(=O)(O)O)[C@@H](O)[C@H]2O)c(=O)[nH]1 [uridine 5′-monophosphate],growth stimulation (well color),[2],turned purple
same,"suitability as phosphorus source (growth, purple color)",E. coli MG1655 [3],positive
coumermycin,position in dendrogram of PM response profiles (FIG. 9),E. coli MG1655 [4],clustered
polymyxin B,position in dendrogram of PM response profiles (FIG. 9),E. coli MG1655 [4],more closely resembled the multiple target antimicrobials

# Reference: US9274101B2 (BIOLOG, Inc., priority 2001, dated 2016)
